Values of other authors, collected in US6087087A, “Treatment of hemoglobin with nitric oxide” (Yonetani; Takashi, priority 1998, dated 2000).
Read-outs that look alike come from different tables or passages of the source.

Tests used:
blood of the rat = conditions: rat treated with nitroglycerin
Hb in rats = conditions: nitroglycerin-induced

Compound: O=[N+]([O-])OCC(CO[N+](=O)[O-])O[N+](=O)[O-] [nitroglycerin]
- right shift of the O2 binding curve of blood (blood of the rat): approximately 10 torr
- α-nitrosylHb formed, of the total heme of Hb (Hb in rats): less than 2%

Compound: nitric oxide [NO]
- affinity of NO for Hb relative to CO (Hb (hemoglobin)): > 10^3 fold
- affinity of NO for Hb relative to CO (Hb (hemoglobin); listed as nitric oxide): more than a thousand-fold higher affinity
